For 24 compounds, IC50 results are on record in patent US9694016B2 (Novartis AG, priority 2013, dated 2017).

Molecules are shown by their SMILES. pIC50: −log10 of the molar value.

Chain of b-Raf (V600E) (P15056 whole entry V600E): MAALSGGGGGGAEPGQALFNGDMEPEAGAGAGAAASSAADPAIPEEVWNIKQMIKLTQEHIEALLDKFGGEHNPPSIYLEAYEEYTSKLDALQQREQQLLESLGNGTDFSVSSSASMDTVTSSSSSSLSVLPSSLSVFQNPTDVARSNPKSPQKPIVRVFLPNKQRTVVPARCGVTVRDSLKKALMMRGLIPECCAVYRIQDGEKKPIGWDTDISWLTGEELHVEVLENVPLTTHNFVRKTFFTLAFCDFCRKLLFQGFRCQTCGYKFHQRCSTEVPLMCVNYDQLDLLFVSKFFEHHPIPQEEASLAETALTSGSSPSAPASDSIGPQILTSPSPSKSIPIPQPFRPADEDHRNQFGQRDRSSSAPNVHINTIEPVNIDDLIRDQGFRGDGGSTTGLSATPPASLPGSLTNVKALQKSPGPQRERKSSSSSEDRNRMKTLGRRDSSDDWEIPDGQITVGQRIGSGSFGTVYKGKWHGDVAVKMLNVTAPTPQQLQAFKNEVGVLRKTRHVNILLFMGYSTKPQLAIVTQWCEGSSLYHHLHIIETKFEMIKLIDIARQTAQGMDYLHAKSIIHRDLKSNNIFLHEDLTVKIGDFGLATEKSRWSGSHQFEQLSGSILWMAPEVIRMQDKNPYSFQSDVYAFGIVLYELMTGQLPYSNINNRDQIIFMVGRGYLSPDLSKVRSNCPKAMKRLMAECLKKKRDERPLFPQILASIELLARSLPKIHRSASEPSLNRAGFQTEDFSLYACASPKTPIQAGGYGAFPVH

One assay concerns the target b-Raf (V600E) (Homo sapiens (Human), UniProt P15056, V600E). The settings on record: read-out: b-Raf IC-50; AlphaScreen, 60 min pre-incubation, 3 hours reaction. On the technique in general: In Alpha technology, singlet oxygen from a donor bead excites a nearby acceptor bead.
In the case of `COc1nnc(-c2cc(NC(=O)c3ccnc(C(C)(C)O)c3)ccc2C)cc1N1CCOCC1` [Example 556, 2-(2-hydroxypropan-2-yl)-N-(3-(6-methoxy-5-morpholinopyridazin-3-yl)-4-methylphenyl)isonicotinamide], the pIC50 was 8.41.

`Cc1ncc(NC(=O)c2ccnc(C(C)C)c2)cc1-c1cc(N2CCOCC2)n(C)c(=O)c1` [Example 505, N-(1′,2-dimethyl-6′-morpholino-2′-oxo-1′,2′-dihydro-[3,4′-bipyridin]-5-yl)-2-isopropylisonicotinamide]: the pIC50 was 8.24. With `Cc1ccc(NC(=O)c2cccc(C(F)(F)F)c2)cc1-c1cc(N2CCOCC2)nc(N2C(=O)OC[C@@H]2C)n1` [Example 783, (S)—N-(4-methyl-3-(2-(4-methyl-2-oxooxazolidin-3-yl)-6-morpholinopyrimidin-4-yl)phenyl)-3-(trifluoromethyl)benzamide], the pIC50 was 8.20. Turning to `CCOc1nnc(-c2cc(NC(=O)c3ccnc(C(C)(C)C#N)c3)cnc2C)cc1N1CCOC[C@H]1C` [Example 623, (R)-2-(2-cyanopropan-2-yl)-N-(5-(6-ethoxy-5-(3-methylmorpholino)pyridazin-3-yl)-6-methylpyridin-3-yl)isonicotinamide], the pIC50 is 7.25.

Regarding `Cc1ncc(NC(=O)c2ccnc(C(C)(F)F)c2)cc1-c1cncc(N2CCOCC2)n1` [Example 533, 2-(1,1-difluoroethyl)-N-(6-methyl-5-(6-morpholinopyrazin-2-yl)pyridin-3-yl)isonicotinamide], the pIC50 is 8.36.

On to `Cc1ncc(NC(=O)c2cccc(C(F)(F)F)c2)cc1-c1cc(N2CCOCC2)n2nccc2n1` [Example 793], for which the pIC50 is 8.89. On the same count and under the same terms, then `CCOc1nnc(-c2cc(NC(=O)c3cccc(C(F)F)c3)ccc2C)cc1N1CCOCC1` [Example 561, 3-(difluoromethyl)-N-(3-(6-ethoxy-5-morpholinopyridazin-3-yl)-4-methylphenyl)benzamide], with 9.52; and `Cc1ccc(NC(=O)c2ccnc(C(C)(C)O)c2)cc1-c1cc(N2CCOCC2)c2nccn2n1` [Example 841, 2-(2-hydroxypropan-2-yl)-N-(4-methyl-3-(8 morpholinoimidazo[1,2-b]pyridazin-6-yl)phenyl)isonicotinamide], with 8.77. Regarding `CCOc1nnc(-c2cc(NC(=O)c3ccnc(C(F)F)c3)ccc2C)cc1N1CCOCC1` [Example 562, 2-(difluoromethyl)-N-(3-(6-ethoxy-5-morpholinopyridazin-3-yl)-4-methylphenyl)isonicotinamide], the pIC50 was 9.22. As to `Cc1ncc(NC(=O)c2cccc(C(F)(F)F)c2)cc1-c1cc(N2CCOCC2)nc(C(C)(C)O)n1` [Example 788, N-(5-(2-(2-hydroxypropan-2-yl)-6-morpholinopyrimidin-4-yl)-6-methylpyridin-3-yl)-3-(trifluoromethyl)benzamide], the pIC50 was 6.70.

Regarding `CCOc1nnc(-c2cc(NC(=O)c3ccnc(C(F)(F)CC)c3)ccc2C)cc1N1CCOCC1` [Example 560, 2-(1,1-difluoropropyl)-N-(3-(6-ethoxy-5-morpholinopyridazin-3-yl)-4-methylphenyl)isonicotinamide], the pIC50 was 9.00.

Staying with this assay, now noted: read-out: b-Raf IC-50; AlphaScreen, 60 min pre-incubation, reaction 3 hours at room temperature.
As to `Cc1ncc(NC(=O)c2ccnc(C(C)(C)O)c2)cc1-c1cnc(OC2CCOCC2)c(N2CCOCC2)c1` [Example 939, 2-(2-hydroxypropan-2-yl)-N-(2-methyl-5′-morpholino-6′-((tetrahydro-2H-pyran-4-yl)oxy)-[3,3′-bipyridin]-5-yl)isonicotinamide], the pIC50 was 7.81. Same read-out and setting: then `CCC(F)(F)c1cc(C(=O)Nc2ccc(C)c(-c3cc(N4CCOCC4)c(S(C)(=O)=O)nn3)c2)ccn1` [Example 926, 2-(1,1-difluoropropyl)-N-(4-methyl-3-(6-(methylsulfonyl)-5-morpholinopyridazin-3-yl)phenyl)isonicotinamide], with 8.67; and `Cc1ncc(NC(=O)c2ccnc(C(C)(F)F)c2)cc1-c1cc(N2CCOCC2)c2nccn2n1` [Example 871, 2-(1,1-difluoroethyl)-N-(6-methyl-5-(8-morpholinoimidazo[1,2-b]pyridazin-6-yl)pyridin-3-yl)isonicotinamide], with 9.22; and `Cc1ncc(NC(=O)c2cc(C(F)(F)F)ccn2)cc1-c1cnc(OC2CCOCC2)c(N2CCOCC2)c1` [Example 942, N-(2-methyl-5′-morpholino-6′-((tetrahydro-2H-pyran-4-yl)oxy)-[3,3′-bipyridin]-5-yl)-4-(trifluoromethyl)picolinamide], with 8.66. Same read-out and setting: then `Cc1ccc(NC(=O)c2ccnc(C(F)(F)F)c2)cc1-c1cc(NC[C@@H](C)O)nc(N2CCOCC2)n1` [Example 1023, (R)—N-(3-(6-((2-hydroxypropyl)amino)-2-morpholinopyrimidin-4-yl)-4-methylphenyl)-2-(trifluoromethyl)isonicotinamide], with 8.63; and `Cc1ncc(NC(=O)c2ccnc(C(C)(C)C#N)c2)cc1-c1cc(N2CCOCC2)nc(N2CC(C)(O)C2)c1` [Example 1108, 2-(2-cyanopropan-2-yl)-N-(2′-(3-hydroxy-3-methylazetidin-1-yl)-2-methyl-6′-morpholino-[3,4′-bipyridin]-5-yl)isonicotinamide], with 7.69; and `Cc1ccc(NC(=O)c2cnnc(C(F)(F)F)c2)cc1-c1cc(NCCO)nc(N2CCOCC2)c1` [Example 1047, N-(3-(2-((2-hydroxyethyl)amino)-6-morpholinopyridin-4-yl)-4-methylphenyl)-6-(trifluoromethyl)pyridazine-4-carboxamide], with 8.40. With `Cc1ccc(NC(=O)c2cncc(C(F)(F)F)c2)cc1-c1cc(N2CCOCC2)c(=O)n(C)n1` [Example 909, N-(4-methyl-3-(1-methyl-5-morpholino-6-oxo-1,6-dihydropyridazin-3-yl)phenyl)-5-(trifluoromethyl)nicotinamide], the pIC50 was 8.81.

Staying with this assay, now noted: read-out: b-Raf IC-50; Table 2; AlphaScreen, 3 hours reaction.
As to `CCOc1ncc(-c2cc(NC(=O)c3cccc(S(C)(=O)=O)c3)cnc2C)cc1N1CCOCC1` [Example 242, N-(6′-ethoxy-2-methyl-5′-morpholino-[3,3′-bipyridin]-5-yl)-3-(methylsulfonyl)benzamide], the pIC50 was 8.41. On to `Cc1ccc(NC(=O)c2cccc(C(F)(F)F)c2)cc1-c1cc(N2CCOCC2)c(=O)n(CC#N)c1` [Example 147, N-(3-(1-(cyanomethyl)-5-morpholino-6-oxo-1,6-dihydropyridin-3-yl)-4-methylphenyl)-3-(trifluoromethyl)benzamide], for which the pIC50 is 9.00.

With `Cc1ccc(NC(=O)c2cnnc(C3CC3)c2)cc1-c1cc(N2CCOCC2)c(=O)n(C)c1` [Example 362, 6-cyclopropyl-N-(4-methyl-3-(1-methyl-5-morpholino-6-oxo-1,6-dihydropyridin-3-yl)phenyl)pyridazine-4-carboxamide], the pIC50 was 8.54.

As to `Cc1ccc(C(=O)Nc2cccc(C(F)(F)F)c2)cc1-c1cc(N2CCOCC2)ccn1` [Example 64, 4-methyl-3-(4-morpholinopyridin-2-yl)-N-(3-(trifluoromethyl)phenyl)benzamide], the pIC50 was 9.05. For the compound `CCOc1ncc(-c2cc(NC(=O)c3cnnc(C(C)(C)C#N)c3)cnc2C)cc1N1CCOCC1` [Example 287, 6-(2-cyanopropan-2-yl)-N-(6′-ethoxy-2-methyl-5′-morpholino-[3,3′-bipyridin]-5-yl)pyridazine-4-carboxamide], the pIC50 was 7.78.
